Assay results taken from patent US9187460B2, “Estrogen receptor modulators and uses thereof” (SERAGON PHARMACEUTICALS, INC., priority 2011, dated 2015).

Key:
[1] = test system: MCF-7 cells; assay: Breast Cancer Cell Viability Assay (MCF7 Viability Assay); assay type: cell-based; conditions: for IC50: Homo sapiens, MCF7, 120 h, read-out: MCF7 Viability Assay IC50; for MCF7 Viability Assay Max Response: MCF-7 cells, 5 days' compound exposure, CellTiter-Glo
[2] = target: T1, ER-α (Homo sapiens, UniProt P03372); assay: Breast Cancer Cell ER-α in Cell Western Assay (SP1); assay type: cell-based; conditions: MCF7, read-out: ER In-Cell Western Assay (SP1); Max Response
T1 construct: endogenous in cells; host or cells: MCF-7
Protocol: Breast Cancer Cell ER-α in Cell Western Assay (SP1)
MCF-7 cells were adjusted to a concentration of 200,000 cells per mL in RPMI containing 10% charcoal-stripped FBS and 20 mM HEPES. 16 microliters of the cell suspension (3200 cells) was added to each well of a poly-D-lysine 384 well plate, and the cells were incubated overnight to allow the cells to adhere. The following day an eleven point, serial semilog dilution of each compound was added to the cells in 16 μL at a final concentration ranging from 0.3-0.000003 μM. At 4 or 24 hr post compound addition, the cells were fixed (10% formalin in PBS) for 20 minutes. Cells were permeablized in PBS 0.1% Triton and blocked with LICOR blocking buffer (50 μl/well, 90′). The wells were then incubated overnight at 4° C. with SP1 rabbit monoclonal Ab (Thermo Scientific) diluted 1:1000 in LICOR blocking buffer/0.1% Tween-20. Wells which were treated with blocking buffer with Tween but no antibody were used as a background control. Wells were washed with 0.1% Tween-20/PBS and then incubated in goat anti-rabbit IRDye™ 800CW (LICOR Inc.; 1:1000) and DRAQ5 DNA dye (1:2000 for 2 mM stock) diluted in LICOR blocking buffer containing 0.1% Tween-20 and 0.01% SDS for 60 minutes. Cells were washed (50 μl/well, 5′ each) in 0.1% Tween-20/PBS. Plates were scanned on a LICOR Odyssey infrared imaging system. Integrated intensities in the 800 nm channel and 700 nm channel were measured to determine levels of ER and DNA respectively. Percent ER levels were determined as follows: (Integrated intensity 800 nm sample/integrated intensity 700 nm sample)/(Integrated intensity 800 nm untreated cells/integrated intensity 700 nm untreated cells)×100=% ER levels.

T1 sequence (P03372 whole entry): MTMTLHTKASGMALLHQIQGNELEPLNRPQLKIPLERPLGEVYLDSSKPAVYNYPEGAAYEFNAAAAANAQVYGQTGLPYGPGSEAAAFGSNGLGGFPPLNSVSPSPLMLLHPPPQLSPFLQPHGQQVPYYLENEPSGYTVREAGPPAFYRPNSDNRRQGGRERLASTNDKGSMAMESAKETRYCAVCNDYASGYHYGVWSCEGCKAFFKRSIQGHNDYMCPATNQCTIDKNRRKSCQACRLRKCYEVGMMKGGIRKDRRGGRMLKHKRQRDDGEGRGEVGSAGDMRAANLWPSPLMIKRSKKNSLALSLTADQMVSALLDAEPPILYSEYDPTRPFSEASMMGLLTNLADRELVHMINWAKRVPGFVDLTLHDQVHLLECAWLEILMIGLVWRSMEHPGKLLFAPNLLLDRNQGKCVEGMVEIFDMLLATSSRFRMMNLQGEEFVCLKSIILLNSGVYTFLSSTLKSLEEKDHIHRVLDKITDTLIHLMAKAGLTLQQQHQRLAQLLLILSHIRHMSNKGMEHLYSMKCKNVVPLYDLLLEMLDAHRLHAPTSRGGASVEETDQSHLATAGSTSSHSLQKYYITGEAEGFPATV

Row | SMILES | IC50 [1] [nM] | MCF7 Viability Assay Max Response [1] | Emax [2] [%]
1 | CC1=C(c2cc(O)cc(Br)c2)C(c2ccc(OC[C@H](C)N3CC[C@@H](C)C3)cc2)Oc2ccc(O)cc21 (stereo partly drawn) [Example 1, 3-(3-Bromo-5-hydroxyphenyl)-4-methyl-2-(4-((S)-2-((R)-3-methylpyrrolidin-1-yl)propoxy)phenyl)-2H-chromen-6-ol] | < 1 | ++ (++ = a single % value ≧50%) | > 85
2 | CC1=C(c2cc(O)ccc2Br)C(c2ccc(OC[C@H](C)N3CC[C@@H](C)C3)cc2)Oc2ccc(O)cc21 (stereo partly drawn) [Example 2, 3-(2-Bromo-5-hydroxyphenyl)-4-methyl-2-(4-((S)-2-((R)-3-methylpyrrolidin-1-yl)propoxy)phenyl)-2H-chromen-6-ol] | < 1 | ++ (++ = a single % value ≧50%) | > 85
3 | CC1=C(c2ccccc2Br)C(c2ccc(OC[C@H](C)N3CC[C@@H](C)C3)cc2)Oc2ccc(O)cc21 (stereo partly drawn) [Example 3, 3-(2-Bromophenyl)-4-methyl-2-(4-((S)-2-((R)-3-methylpyrrolidin-1-yl)propoxy)phenyl)-2H-chromen-6-ol] | < 1 | ++ (++ = a single % value ≧50%) | 60 to 85
4 | CC1=C(c2ccc(Br)cc2C)C(c2ccc(OC[C@H](C)N3CC[C@@H](C)C3)cc2)Oc2ccc(O)cc21 (stereo partly drawn) [Example 4, 3-(4-Bromo-2-methylphenyl)-4-methyl-2-(4-((S)-2-((R)-3-methylpyrrolidin-1-yl)propoxy)phenyl)-2H-chromen-6-ol] | > 1 | ++ (++ = a single % value ≧50%) | 60 to 85
5 | CC1=C(c2ccc(C#N)cc2)C(c2ccc(OC[C@H](C)N3CC[C@@H](C)C3)cc2)Oc2ccc(O)cc21 (stereo partly drawn) [Example 5, 4-(6-Hydroxy-4-methyl-2-(4-((S)-2-((R)-3-methylpyrrolidin-1-yl)propoxy)phenyl)-2H-chromen-3-yl)benzonitrile] | > 1 | ++ (++ = a single % value ≧50%) | 60 to 85
6 | CC1=C(c2cccc(C#N)c2)C(c2ccc(OC[C@H](C)N3CC[C@@H](C)C3)cc2)Oc2ccc(O)cc21 (stereo partly drawn) [Example 6, 3-(6-Hydroxy-4-methyl-2-(4-((S)-2-((R)-3-methylpyrrolidin-1-yl)propoxy)phenyl)-2H-chromen-3-yl)benzonitrile] | > 1 | ++ (++ = a single % value ≧50%) | 60 to 85
7 | CC1=C(c2cc(O)cc(C#N)c2)C(c2ccc(OC[C@H](C)N3CC[C@@H](C)C3)cc2)Oc2ccc(O)cc21 (stereo partly drawn) [Example 7, 3-Hydroxy-5-(6-hydroxy-4-methyl-2-(4-((S)-2-((R)-3-methylpyrrolidin-1-yl)propoxy)phenyl)-2H-chromen-3-yl)benzonitrile] | < 1 | ++ (++ = a single % value ≧50%) | 60 to 85
8 | CC1=C(c2cc(O)ccc2C#N)C(c2ccc(OC[C@H](C)N3CC[C@@H](C)C3)cc2)Oc2ccc(O)cc21 (stereo partly drawn) [Example 8, 4-Hydroxy-2-(6-hydroxy-4-methyl-2-(4-((S)-2-((R)-3-methylpyrrolidin-1-yl)propoxy)phenyl)-2H-chromen-3-yl)benzonitrile] | < 1 | ++ (++ = a single % value ≧50%) | > 85
9 | CC1=C(c2cccc(O)c2C#N)C(c2ccc(OC[C@H](C)N3CC[C@@H](C)C3)cc2)Oc2ccc(O)cc21 (stereo partly drawn) [Example 9, 2-Hydroxy-6-(6-hydroxy-4-methyl-2-(4-((S)-2-((R)-3-methylpyrrolidin-1-yl)propoxy)phenyl)-2H-chromen-3-yl)benzonitrile] | > 1 | ++ (++ = a single % value ≧50%) | 60 to 85
10 | CC1=C(c2ccc(C#N)c(O)c2)C(c2ccc(OC[C@H](C)N3CC[C@@H](C)C3)cc2)Oc2ccc(O)cc21 (stereo partly drawn) [Example 10, 2-Hydroxy-4-(6-hydroxy-4-methyl-2-(4-((S)-2-((R)-3-methylpyrrolidin-1-yl)propoxy)phenyl)-2H-chromen-3-yl)benzonitrile] | > 1 | ++ (++ = a single % value ≧50%) | > 85
11 | CC1=C(c2ccc(O)c(C#N)c2)C(c2ccc(OC[C@H](C)N3CC[C@@H](C)C3)cc2)Oc2ccc(O)cc21 (stereo partly drawn) [Example 11, 2-Hydroxy-5-(6-hydroxy-4-methyl-2-(4-((S)-2-((R)-3-methylpyrrolidin-1-yl)propoxy)phenyl)-2H-chromen-3-yl)benzonitrile] | > 1 | ++ (++ = a single % value ≧50%) | > 85
12 | CC1=C(c2ccc(O)cc2C#N)C(c2ccc(OC[C@H](C)N3CC[C@@H](C)C3)cc2)Oc2ccc(O)cc21 (stereo partly drawn) [Example 12, 5-Hydroxy-2-(6-hydroxy-4-methyl-2-(4-((S)-2-((R)-3-methylpyrrolidin-1-yl)propoxy)phenyl)-2H-chromen-3-yl)benzonitrile] | < 1 | ++ (++ = a single % value ≧50%) | 60 to 85
13 | CC1=C(c2ccc(C#N)cc2C)C(c2ccc(OC[C@H](C)N3CC[C@@H](C)C3)cc2)Oc2ccc(O)cc21 (stereo partly drawn) [Example 13, 4-(6-Hydroxy-4-methyl-2-(4-((S)-2-((R)-3-methylpyrrolidin-1-yl)propoxy)phenyl)-2H-chromen-3-yl)-3-methylbenzonitrile] | > 1 | ++ (++ = a single % value ≧50%) | 60 to 85
14 | CC1=C(c2ccccc2C#N)C(c2ccc(OC[C@H](C)N3CC[C@@H](C)C3)cc2)Oc2ccc(O)cc21 (stereo partly drawn) [Example 14, 2-(6-Hydroxy-4-methyl-2-(4-((S)-2-((R)-3-methylpyrrolidin-1-yl)propoxy)phenyl)-2H-chromen-3-yl)benzonitrile] | > 1 | ++ (++ = a single % value ≧50%) | 60 to 85
15 | CC1=C(c2cccc(S(C)(=O)=O)c2)C(c2ccc(OC[C@H](C)N3CC[C@@H](C)C3)cc2)Oc2ccc(O)cc21 (stereo partly drawn) [Example 15, 4-Methyl-2-(4-((S)-2-((R)-3-methylpyrrolidin-1-yl)propoxy)phenyl)-3-(3-(methylsulfonyl)phenyl)-2H-chromen-6-ol] | > 1 | ++ (++ = a single % value ≧50%) | 60 to 85
16 | CC1=C(c2cc(O)cc(S(C)(=O)=O)c2)C(c2ccc(OC[C@H](C)N3CC[C@@H](C)C3)cc2)Oc2ccc(O)cc21 (stereo partly drawn) [Example 16, 3-(3-Hydroxy-5-(methylsulfonyl)phenyl)-4-methyl-2-(4-((S)-2-((R)-3-methylpyrrolidin-1-yl)propoxy)phenyl)-2H-chromen-6-ol] | > 1 | ++ (++ = a single % value ≧50%) | 60 to 85
17 | CC1=C(c2ccc(O)c(S(C)(=O)=O)c2)C(c2ccc(OC[C@H](C)N3CC[C@@H](C)C3)cc2)Oc2ccc(O)cc21 (stereo partly drawn) [Example 17, 3-(4-Hydroxy-3-(methylsulfonyl)phenyl)-4-methyl-2-(4-((S)-2-((R)-3-methylpyrrolidin-1-yl)propoxy)phenyl)-2H-chromen-6-ol] | > 1 | + (+ = a single % value <50%) | < 60
18 | CC1=C(c2ccc(S(C)(=O)=O)cc2C)C(c2ccc(OC[C@H](C)N3CC[C@@H](C)C3)cc2)Oc2ccc(O)cc21 (stereo partly drawn) [Example 18, 4-Methyl-3-(2-methyl-4-(methylsulfonyl)phenyl)-2-(4-((S)-2-((R)-3-methylpyrrolidin-1-yl)propoxy)phenyl)-2H-chromen-6-ol] | > 1 | ++ (++ = a single % value ≧50%) | 60 to 85
19 | CC1=C(c2cccc(O)c2)C(c2ccc(OCCN3CCSCC3)cc2)Oc2ccc(O)cc21 (stereo not drawn) [Example 19, 3-(3-Hydroxyphenyl)-4-methyl-2-(4-(2-thiomorpholinoethoxy)phenyl)-2H-chromen-6-ol] | < 1 | + (+ = a single % value <50%) | 60 to 85
20 | CC1=C(c2cccc(O)c2)C(c2ccc(OCCN3CCO[C@@H](C)C3)cc2)Oc2ccc(O)cc21 (stereo partly drawn) [Example 20, 3-(3-Hydroxyphenyl)-4-methyl-2-(4-(2-((S)-2-methylmorpholino)ethoxy)phenyl)-2H-chromen-6-ol] | < 1 | + (+ = a single % value <50%) | < 60
21 | CC1=C(c2cccc(O)c2)C(c2ccc(OCCN3CCOCC3)cc2)Oc2ccc(O)cc21 (stereo not drawn) [Example 21, 3-(3-Hydroxyphenyl)-4-methyl-2-(4-(2-morpholinoethoxy)phenyl)-2H-chromen-6-ol] | < 1 | + (+ = a single % value <50%) | 60 to 85
22 | CC1=C(c2cccc(O)c2)C(c2ccc(OCCN3CCO[C@H](C)C3)cc2)Oc2ccc(O)cc21 (stereo partly drawn) [Example 22, 3-(3-Hydroxyphenyl)-4-methyl-2-(4-(2-((R)-2-methylmorpholino)ethoxy)phenyl)-2H-chromen-6-ol] | > 1 | + (+ = a single % value <50%) | < 60
